Results on 21 compounds are retold here after paper PMC5412877, “Discovery of a PCAF Bromodomain Chemical Probe” (Angewandte Chemie (International Ed. in English), 2016).

Structures are written as SMILES. “And” between values parts separate entries of the source, which are not always exact repeats. Equal entries are not always repeated.

In the first experiment the target is T1, PCAF Brd (Homo sapiens, UniProt Q92831).
T1 construct: Human bromodomains were cloned, expressed and purified as previously described; made in house
T1 sequence (Q92831 723-827 limits assumed): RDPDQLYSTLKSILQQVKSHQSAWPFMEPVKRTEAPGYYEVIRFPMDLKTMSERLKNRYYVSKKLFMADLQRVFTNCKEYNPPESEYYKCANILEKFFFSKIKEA
The experiment in a line: Isothermal titration calorimetry (ITC), PCAF Brd. The settings on record: Supplemental Table 3; compound concentration 30 μM, protein concentration 280-320 μM; read-out: PCAF KD (μM) (ITC). It counts as binding. How it is done:
Isothermal Titration Calorimetry (ITC)
Experiments were carried out on a Nano-ITC Standard Volume Instrument (TA Instruments). All experiments were carried out at 25 °C in 20 mM HEPES pH 7.5, 150 mM NaCl, 0.5 mM TCEP and 5% glycerol. Protein solutions were buffer exchanged by gel filtration. The titrations were conducted using an initial injection of 2 μL followed by 32 injections of 8 μL. Background dilution heat was substracted from each experiment. Thermodynamic parameters were calculated using ΔG = ΔH-T ΔS = -RTlnKB , where KD = 1/KB. ΔG, ΔH and ΔS are changes in free energy, enathalpy and entropy resepectively. Independent single site binding models were employed in data analysis.
Supplemental Figure 3. ITC trace of D-Moses and PCAF Brd […]
For the compound `COc1cccc(N2CC(Nc3nn4c(C)nnc4c4ccccc34)CC2=O)c1` (centres unmarked) [Compound 57], the Kd was greater than 30 µM.

Regarding `Cc1nnc2c3ccccc3c(NCCN3CCN(C)CC3)nn12` [Compound 69], the Kd was greater than 30 µM.

As to `Cc1nnc2c3ccccc3c(N[C@@H]3CCCN(C(=O)OCc4ccccc4)C3)nn12` [Compound 65], the Kd was greater than 30 µM.

The experiment is the same for the next values; noted with them: Table 1; read-out: K D [μM] (ITC) PCAF Brd.
For the compound `CCC(CNc1nn2c(C)nnc2c2ccccc12)N(C)C` (centres unmarked) [Compound 16], the Kd was 6.9 ± 1.4 µM.

`Cc1nnc2c3ccccc3c(NCC(c3ccccc3)N(C)C)nn12` (centres unmarked) [Compound 10]: the Kd is 1 µM.

With `Cc1nnc2c3ccccc3c(NCCCN(C)C)nn12` [Compound 8], the Kd was greater than 30 µM.

For the compound `Cc1nnc2c3ccccc3c(NCC(C)N(C)C)nn12` (centres unmarked) [Compound 15], the Kd stood at 7.3 ± 1.1 µM.

Regarding `Cc1nnc2c3ccccc3c(NC(CC(C)C)CN(C)C)nn12` (centres unmarked) [Compound 13], the Kd is greater than 30 µM.

Consider `C[C@@H](CN(C)C)Nc1nn2c(C(F)(F)F)nnc2c2ccccc12` [Compound (S)‐17], for which the Kd was greater than 30 µM.

The same experiment, now with this note: Table 2; read-out: K D (nM) (ITC) PCAF Brd.
Take `Cc1ccc([C@@H]([C@H](C)Nc2nn3c(C)nnc3c3ccccc23)N(C)C)cc1` (relative stereo) [Compound 41]: the Kd is 0.16 ± 0.054 µM.

For `Cc1nnc2c3ccccc3c(N[C@@H](C)[C@H](c3ccc(C(F)(F)F)cc3)N(C)C)nn12` (relative stereo) [Compound 43], the Kd came to 0.163 ± 0.117 µM.

A further experiment addresses T1, PCAF Brd. The experiment in a line: Differential scanning fluorimetry (DSF), PCAF Brd. It counts as binding. The settings on record: compound concentration 10 μM. How it is done: (§1) Protein Expression and Purification
(§2) Human bromodomains were cloned, expressed and purified as previously described.[1]
(§3) Differential Scanning Fluorimetry (DSF)
(§4) Thermal melting points were recorded using an Mx3005p Real Time PCR Machine (Stratagene).
(§5) Subject proteins were buffered in 10 mM HEPES at pH 7.5, 500 mM NaCl and assayed in a 96-well […]
(§6) plate at a final concentration of 2 μM in 20 μL volume. Compounds were then added to a final […]
(§7) concentration of 10 μM. SPYRO Orange (Molecular Probes) was used as a fluorescent probe at a […]
(§8) dilution of 1:1000. Excitation and emission filters for the SPYRO-Orange dye were set to 465 nm and […]
(§9) 590 nm, respectively. The temperature was raised with a step of 3 °C/min from 25 °C to 96 °C and […]
(§10) fluorescence readings were taken at each interval. Data was analysed as previously described.[2]
(§11) Bromodomain affinity selectivity panel of (S)-11
(§12) Supplemental Figure 1. DSF Selectivity panel of (S)-11 against 48 human Bromodomains. […]
(§13) ┼Mean ΔTm ± SEM (number of measurements= 2). Compound concentration: 10 μM […]
(§14) (1 picture or pasted object on this page, not shown here)
(Differential scanning fluorimetry follows unfolding on heating by fluorescence.)
`Cc1nnc2c3ccccc3c(NC3CCCN(C)C3=O)nn12` (centres unmarked) [Compound 50]: the “ΔT m [°C] PCAF (DSF)” value amounted to 1.1 °C.

For the compound `Cc1nnc2c3ccccc3c(N[C@@H](C)[C@H](O)c3ccccc3)nn12` [Compound 77], the “ΔT m [°C] PCAF (DSF)” value stood at 0.3 °C.

Turning to `Cc1nnc2c3ccccc3c(NCCN3CCOCC3)nn12` [Compound 98], the “ΔT m [°C] PCAF (DSF)” value is 0.7 °C.

`Cc1nnc2c3ccccc3c(NCC(=O)c3ccccc3)nn12` [Compound 81]: the “ΔT m [°C] PCAF (DSF)” value stood at 1.0 °C.

With `Cc1nnc2c3ccccc3c(NCC(c3ccccc3)N(C)C)nn12` (centres unmarked) [Compound 10], the “ΔT m [°C] PCAF (DSF)” value stood at 1.7 °C.

Consider `Cc1nnc2c3ccccc3c(NCC3COCCN3C)nn12` (centres unmarked) [Compound 58], for which the “ΔT m [°C] PCAF (DSF)” value was determined as 2.7 °C.

With `Cc1nnc2c3ccccc3c(Cl)nn12` [Compound 94], the “ΔT m [°C] PCAF (DSF)” value turned out to be 0 °C.

With `Cc1nnc2c3ccccc3c(NCC3CCCOC3)nn12` (centres unmarked) [Compound 99], the “ΔT m [°C] PCAF (DSF)” value came out at 3.8 °C.

`Cc1ccc([C@@H]([C@H](C)Nc2nn3c(C)nnc3c3ccccc23)N(C)C)cc1` (relative stereo) [Compound 41]: the “ΔT m [°C] PCAF (DSF)” value turned out to be 7.8 °C.

In the case of `Cc1nnc2c3ccccc3c(NCC(C)N(C)C)nn12` (centres unmarked) [Compound 15], the “ΔT m [°C] PCAF (DSF)” value came out at 4.6 °C.

Take `Cc1nnc2c3ccccc3c(N[C@@H](C)[C@H](c3ccc(C(F)(F)F)cc3)N(C)C)nn12` (relative stereo) [Compound 43]: the “ΔT m [°C] PCAF (DSF)” value is 9.1 °C.

As for `Cc1nnc2c3ccccc3c(NC(CC(C)C)CN(C)C)nn12` (centres unmarked) [Compound 13], the “ΔT m [°C] PCAF (DSF)” value was 0.9 °C and 0.85 °C.

For the compound `C[C@@H](CN(C)C)Nc1nn2c(C(F)(F)F)nnc2c2ccccc12` [Compound (S)‐17], the “ΔT m [°C] PCAF (DSF)” value worked out at 0.65 °C.

For the compound `CCN1CCCCC1CNc1nn2c(C)nnc2c2ccccc12` (centres unmarked) [Compound 63], the “ΔT m [°C] PCAF (DSF)” value amounted to 0.2 °C.

With `COc1cccc(N2CC(Nc3nn4c(C)nnc4c4ccccc34)CC2=O)c1` (centres unmarked) [Compound 57], the “ΔT m [°C] PCAF (DSF)” value worked out at 0.4 °C.

Regarding `Cc1nnc2c3ccccc3c(NCCN3CCN(C)CC3)nn12` [Compound 69], the “ΔT m [°C] PCAF (DSF)” value was 0.9 °C.

As to `Cc1nnc2c3ccccc3c(NC(CO)c3ccccc3)nn12` (centres unmarked) [Compound 51], the “ΔT m [°C] PCAF (DSF)” value turned out to be 1.0 °C.

As for `Cc1nnc2c3ccccc3c(N[C@H]3C[C@@H]4CC[C@H]3C4)nn12` [Compound 61], the “ΔT m [°C] PCAF (DSF)” value is 0.5 °C.

Staying with this experiment, now noted: compound concentration 10 μM; listed as (S)-17.
Regarding `C[C@@H](CN(C)C)Nc1nn2c(C(F)(F)F)nnc2c2ccccc12` [Compound (S)‐17], the “ΔT m [°C] PCAF (DSF)” value is 0.7 °C.

Another experiment has as its target T2, GCN5L2 (Homo sapiens, UniProt Q92830).
T2 construct: made in house
T2 sequence (Q92830 728-832 limits assumed): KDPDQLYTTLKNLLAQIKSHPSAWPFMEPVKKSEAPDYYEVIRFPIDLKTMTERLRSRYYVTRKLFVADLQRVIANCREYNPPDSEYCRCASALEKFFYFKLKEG
The experiment in a line: Differential scanning fluorimetry (DSF), GCN5 (GCN5L2) Brd. It counts as binding. The settings on record: compound 10 μM. As to the method:
as §1, §2, §3, §4, §5, §6, §7, §8, §9, §10, §11, §12, §13, §14
For `Cc1nnc2c3ccccc3c(NCC(=O)c3ccccc3)nn12` [Compound 81], the “GCN5L2 ΔTm (°C) (DSF)” value came to 0.3 °C.

For the compound `COc1cccc(N2CC(Nc3nn4c(C)nnc4c4ccccc34)CC2=O)c1` (centres unmarked) [Compound 57], the “GCN5L2 ΔTm (°C) (DSF)” value amounted to 0.1 °C.

On to `Cc1nnc2c3ccccc3c(N[C@H]3C[C@@H]4CC[C@H]3C4)nn12` [Compound 61], for which the “GCN5L2 ΔTm (°C) (DSF)” value came to 0 °C.

Staying with this experiment, now noted: compound 10 μM; read-out: GCN5L2 ΔTm (°C) (DSF).
Turning to `Cc1nnc2c3ccccc3c(NC3CCCN(C)C3=O)nn12` (centres unmarked) [Compound 50], the ΔTm (usually the shift of the melting midpoint relative to a reference) at 10 µM was 0.1 °C.

Turning to `Cc1nnc2c3ccccc3c(N[C@@H](C)[C@H](O)c3ccccc3)nn12` [Compound 77], the shift in melting temperature (ΔTm) at 10 µM came to 0.2 °C.

Consider `Cc1nnc2c3ccccc3c(NCCN3CCOCC3)nn12` [Compound 98], for which the thermal shift (ΔTm) at 10 µM is 0.2 °C.

`Cc1nnc2c3ccccc3c(NCC3COCCN3C)nn12` (centres unmarked) [Compound 58]: the shift in melting temperature (ΔTm) at 10 µM was found to be 0.4 °C.

For `Cc1nnc2c3ccccc3c(Cl)nn12` [Compound 94], the thermal shift (ΔTm) at 10 µM was found to be 0.2 °C.

Regarding `Cc1nnc2c3ccccc3c(NCC3CCCOC3)nn12` (centres unmarked) [Compound 99], the shift in melting temperature (ΔTm) at 10 µM was found to be 1.5 °C.

`Cc1ccc([C@@H]([C@H](C)Nc2nn3c(C)nnc3c3ccccc23)N(C)C)cc1` (relative stereo) [Compound 41]: the ΔTm at 10 µM worked out at 4.3 °C.

In the case of `Cc1nnc2c3ccccc3c(NCC(C)N(C)C)nn12` (centres unmarked) [Compound 15], the ΔTm at 10 µM came out at 1 °C.

For `Cc1nnc2c3ccccc3c(N[C@@H](C)[C@H](c3ccc(C(F)(F)F)cc3)N(C)C)nn12` (relative stereo) [Compound 43], the ΔTm at 10 µM was determined as 7.2 °C.

Consider `Cc1nnc2c3ccccc3c(NC(CC(C)C)CN(C)C)nn12` (centres unmarked) [Compound 13], for which the ΔTm at 10 µM turned out to be 1.1 °C.

Take `C[C@@H](CN(C)C)Nc1nn2c(C(F)(F)F)nnc2c2ccccc12` [Compound (S)‐17]: the ΔTm at 10 µM is 0.2 °C.

Regarding `CCN1CCCCC1CNc1nn2c(C)nnc2c2ccccc12` (centres unmarked) [Compound 63], the ΔTm at 10 µM came to 0 °C.

`Cc1nnc2c3ccccc3c(NCCN3CCN(C)CC3)nn12` [Compound 69]: the ΔTm at 10 µM turned out to be 0 °C.

Take `Cc1nnc2c3ccccc3c(NC(CO)c3ccccc3)nn12` (centres unmarked) [Compound 51]: the ΔTm at 10 µM was 0 °C.
